Patent US20090149518A1, “PHARMACEUTICAL FOR PROTECTION OF MOTOR NERVE IN PATIENT WITH AMYOTROPHIC LATERAL SCLEROSIS” (ONO PHARMACEUTICAL CO., LTD., priority 2005, published 2009)

Tests used:
Assay type in all cases: in vivo, human
[1] = test system: patients with amyotrophic lateral sclerosis; assay: Example 2 clinical study: safety measurements; details: 1200 mg once a day oral for 18 months plus standard riluzole
Procedure: (§1) As a clinical study, double blind placebo-controlled parallel group study was carried out on patients with amyotrophic lateral sclerosis, under the following conditions.
(§2) (1) Active group: (2R)-2-propyloctanoic acid 1200 mg (four soft capsules comprising 300 mg of (2R)-2-propyloctanoic acid per capsule);
(§3) Both Active and Placebo group are administered for 18 months.
(§4) Riluzole was administered to all subjects in Active and Placebo group in the manner of standard therapy (riluzole 50 mg tablet: one tablet twice a day (before breakfast and dinner), oral daily dose of 100 mg).
Evaluation method: Blood pressure and pulse of the subject were recorded at the following evaluation times.
Evaluation method: 12 lead ECG was conducted at the following evaluation times. Sinus rhythm, RR interval, PR interval, QRS duration, QT/QTc, and so forth were assessed.
Evaluation method: Weight of the subject was measured at the following evaluation times.
Evaluation method: Clinical laboratory test (haematology, biochemistry and urinalysis) of the subject was conducted at the following evaluation times.
(§5) Evaluation method: Incidence and content (e.g., symptom, causal association, etc.) of clinical adverse events were monitored for each subject.

[2] = test system: patients with amyotrophic lateral sclerosis; assay: Example 1 clinical study: clinical adverse events; details: Active group, 1200 mg once a day oral for 12 months plus standard riluzole
Procedure: as §1, §2
(§6) Both Active and Placebo groups are administered for 12 months.
(§7) Riluzole was administered to all subjects in Active and Placebo groups in the manner of standard therapy (riluzole 50 mg tablet: one tablet twice a day (before breakfast and dinner), oral daily dose of 100 mg).
as §5
Evaluation time: Throughout the study.

[3] = test system: patients with amyotrophic lateral sclerosis; assay: Example 1 clinical study: respiratory function (slow vital capacity); details: Active group
Procedure: as §1, §2, §6, §7
(§8) Evaluation method: Slow vital capacity (SVC) of the subject was measured at the following evaluation times. SVC was measured three times in the sitting position, allowing sufficient recovery time between each manoeuvre. The highest SVC value was recorded.
Evaluation time: 1, 2, 4, 6, 8, 10 and 12 month(s) from the start of administration.
Suppression of respiratory disability and improvement in survival rate are shown by oral administration of (2R)-2-propyloctanoic acid in the patient within about 14 months after the onset of muscular weakness (Active group: 55 patients, Placebo group: 54 patients. Both Active and Placebo groups are treated with standard riluzole therapy). Hereinafter, each result is described in detail, […]

[4] = test system: patients with amyotrophic lateral sclerosis; assay: Example 2 clinical study: efficacy measurements; details: 1200 mg once a day oral for 18 months plus standard riluzole; patients less than 14 months from onset of muscular weakness
Procedure: as §1
(3) Less than 14 months from onset of muscular weakness;
as §2, §3, §4, §8
Evaluation method: Functional status of the subject was assessed at the following evaluation times using revised amyotrophic lateral sclerosis functional rating scale (ALSFRS-R) shown in above-mentioned Table 1 to 13.
Evaluation method; Muscle strength of the subject was assessed at the following evaluation times using medical research council scale shown in before-mentioned Table 14. […]
Evaluation method: Death, bronchotomy, and using noninvasive ventilator were recorded for each subject, if and when it occurs. […]

[5] = test system: ALS patients; assay: Studies of the inventors: (2R)-2-propyloctanoic acid used alone in ALS patients; details: without riluzole
[6] = test system: patients with amyotrophic lateral sclerosis; assay: Example 1 clinical study: survival; details: Active group, 1200 mg once a day oral for 12 months plus standard riluzole; patients within about 14 months after onset of muscular weakness
Procedure: As a clinical study, double blind placebo-controlled parallel group study was carried out on patients with amyotrophic lateral sclerosis, under the following conditions. […] (1) Active group: (2R)-2-propyloctanoic acid 1200 mg (four soft capsules comprising 300 mg of (2R)-2-propyloctanoic acid per capsule); Both Active and Placebo groups are administered for 12 months. Riluzole was administered to all subjects in Active and Placebo groups in the manner of standard therapy (riluzole 50 mg tablet: one tablet twice a day (before breakfast and dinner), oral daily dose of 100 mg). Evaluation method: Death was recorded for each subject, if and when it occurs. Evaluation time. Throughout the study. Suppression of respiratory disability and improvement in survival rate are shown by oral administration of (2R)-2-propyloctanoic acid in the patient within about 14 months after the onset of muscular weakness (Active group: 55 patients, Placebo group: 54 patients. Both Active and Placebo groups are treated with standard riluzole therapy). Hereinafter, each result is described in detail, […]

Compound: CCCCCC[C@@H](CCC)C(=O)O [(2R)-2-propyloctanoic acid]
- safety in ALS patient [1]: safe
- frequency of adverse event [2]: 89%
- frequency of serious adverse event [2]: 49%
- reduction of slow vital capacity (% of the predicted value) at 12 months from the start of administration compared to before-administration ([3]; 1200 mg once a day oral for 12 months plus standard riluzole 100 mg/day, patients within about 14 months after onset of muscular weakness (55 patients)): 38.27%
- patients whose slow vital capacity was lowered to 50% or less of predicted in 12 months ([3]; 1200 mg once a day oral plus standard riluzole, patients within about 14 months after onset of muscular weakness, result of estimation): about 35 % of patients
- effectiveness on suppressing muscular weakness, suppressing respiratory disability, extending survival period, improvement in quality-of-life measures [4]: shows its effectiveness on at least one of
- effect on ALS patients when used alone [5]: cannot exert any satisfactory effect
- mortality in the dosing period [6]: 9 of 55
- survival rate [6]: 84%
